Mortality and chromatographic logP data for 40 compounds are collected here from patent publication EP2042492A1, “Novel Iminooxazole and Iminothiazole Compounds” (Bayer CropScience AG, priority 2007, dated 2009).

The test system of one data set is Myzus persicae. Description: Myzus persicae - test (MYZUPE spray application). Format: in vivo. Conditions: application rate of 500g/ha, spray on Chinese cabbage leaf-disks infected with all instars of green peach aphid, 100% = all aphids killed. As for the experimental part: Myzus persicae - test; (MYZUPE spray application)
Chinese cabbage (Brassica pekinesis) leaf-disks infected with all instars of the green peach aphid (Myzus persicae), are sprayed with a preparation of the active ingredient at the desired concentration.
After the specified period of time, mortality in % is determined. 100% means that all aphids have been killed; 0% means that none of the aphids have been killed.
As usually defined, the mortality is the share of the test organisms that died. Lower therefore signals more survivors. `CC[C@H](N=c1scc(-c2ccccc2)n1CCO)c1ccccc1` [Example 2-370]: the mortality at 500 g/ha was at least 80%.

Compound `C[C@H](N=c1scc(-c2cccnc2)n1CCO)c1ccccc1` [Example 2-27] had a mortality at 500 g/ha of at least 80%.

`CC[C@H](N=c1scc(C(C)C)n1CCO)c1ccccc1` [Example 2-364]: the mortality at 500 g/ha was at least 80%.

`C[C@H](N=c1scc(-c2ccccc2)n1CCO)c1ccc(F)cc1` [Example 2-160] displayed a mortality at 500 g/ha of at least 80%.

The compound `CCc1csc(=N[C@@H](C)c2ccc(Cl)cc2)n1CCO` [Example 2-288] had a mortality at 500 g/ha of at least 80%.

Regarding `CC[C@H](N=c1scc(C2CC2)n1CCO)c1ccccc1` [Example 2-367], the mortality at 500 g/ha was at least 80%.

The compound `C[C@H](N=c1scc(C2CC2)n1CCO)c1ccc(F)cc1` [Example 2-157] returned a mortality at 500 g/ha of at least 80%.

`Cc1csc(=N[C@@H](C)c2ccccc2)n1CCO` [Example 2-17] had a mortality at 500 g/ha of at least 80%.

`Cc1csc(=N[C@@H](C)c2ccc(Cl)cc2)n1CCO` [Example 2-287] gave a mortality at 500 g/ha of at least 80%.

Compound `C[C@H](N=c1scc(C2CC2)n1CCO)c1ccccc1` [Example 2-22] returned a mortality at 500 g/ha of at least 80%.

On to `CCc1csc(=N[C@@H](C)c2ccc(F)cc2)n1CCO` [Example 2-153], for which the mortality at 500 g/ha was at least 80%.

As to `C[C@H](N=c1scc(-c2cccnc2)n1CCO)c1ccc(Cl)cc1` [Example 2-297], the mortality at 500 g/ha was at least 80%.

On to `C[C@H](N=c1scc(-c2ccccc2)n1CCO)c1ccccc1` [Example 2-25], for which the mortality at 500 g/ha was at least 80%.

For `CC(C)c1csc(=N[C@@H](C)c2ccc(Cl)cc2)n1CCO` [Example 2-289], the mortality at 500 g/ha is at least 80%.

`Cc1cs/c(=N/[C@@H](C)c2ccc(F)cc2)n1CCO` [Example 2-152, 2-[(2E)-2-{[(1S)-1-(4-fluorophenyl)ethyl]imino}-4-methyl-1,3-thiazol-3(2H)-yl]ethanol] showed a mortality at 500 g/ha of at least 80%.

For the compound `CC(C)c1csc(=N[C@@H](C)c2ccccc2)n1CCO` [Example 2-19], the mortality at 500 g/ha is at least 80%.

As to `CC[C@H](N=c1scc(C2CCCC2)n1CCO)c1ccccc1` [Example 2-368], the mortality at 500 g/ha was at least 80%.

Turning to `CC[C@H](N=c1scc(C)n1CCO)c1ccccc1` [Example 2-362], the mortality at 500 g/ha was at least 80%.

As for `CC(C)c1csc(=N[C@@H](C)c2ccc(F)cc2)n1CCO` [Example 2-154], the mortality at 500 g/ha was at least 80%.

With `C[C@H](N=c1scc(C2(Cl)CC2)n1CCO)c1ccc(F)cc1` [Example 2-164], the mortality at 500 g/ha was at least 80%.

`C[C@H](N=c1scc(C2CCCC2)n1CCO)c1ccc(F)cc1` [Example 2-158]: the mortality at 500 g/ha is at least 80%.

As to `CCc1csc(=N[C@@H](CC)c2ccccc2)n1CCO` [Example 2-363], the mortality at 500 g/ha is at least 80%.

With `C[C@H](N=c1scc(C2CCCC2)n1CCO)c1ccc(Cl)cc1` [Example 2-293], the mortality at 500 g/ha is at least 80%.

In the case of `CC[C@H](N=c1scc(-c2cccnc2)n1CCO)c1ccccc1` [Example 2-372], the mortality at 500 g/ha was at least 80%.

`CC[C@H](N=c1scc(C2(Cl)CC2)n1CCO)c1ccccc1` [Example 2-374] came in with a mortality at 500 g/ha of at least 80%.

The compound `C[C@H](N=c1scc(-c2cccnc2)n1CCO)c1ccc(F)cc1` [Example 2-162] displayed a mortality at 500 g/ha of at least 80%.

As for `C[C@H](N=c1scc(C2CCCC2)n1CCO)c1ccccc1` [Example 2-23], the mortality at 500 g/ha is at least 80%.

Consider `Cc1sc(=N[C@@H](C)c2ccccc2)n(CCO)c1C` [Example 2-21], for which the mortality at 500 g/ha is at least 80%.

For the compound `C[C@H](N=c1scc(C2(Cl)CC2)n1CCO)c1ccc(Cl)cc1` [Example 2-299], the mortality at 500 g/ha is at least 80%.

In turn, `CCc1csc(=N[C@@H](C)c2ccccc2)n1CCO` [Example 2-18] came in with a mortality at 500 g/ha of at least 80%.

As to `C[C@H](N=c1scc(C2(Cl)CC2)n1CCO)c1ccccc1` [Example 2-29], the mortality at 500 g/ha was at least 80%.

In the case of `C[C@H](N=c1scc(-c2ccccc2)n1CCO)c1ccc(Cl)cc1` [Example 2-295], the mortality at 500 g/ha is at least 80%.

The next data set has as its system Tetranychus urticae. Description: Tetranychus urticae - test; OP-resistant (TETRUR spray application). In kind it is in vivo. Conditions: application rate of 500g/ha, spray on French beans infested with all stages of two spotted spidermite, 100% = all spider mites killed. As for the experimental part: Tetranychus urticae - test; OP-resistant (TETRUR spray application)
(§1) To produce a suitable preparation of active compound, 1 part by weight of active compound is mixed with the stated amount of solvent and emulsifier, and the concentrate is diluted with emulsifier-containing water to the desired concentration.
French beans (Phaseolus vulgaris) which are heavily infested with all stages of the two spotted spidermite (Tetranychus urticae), are sprayed with a preparation of the active ingredient at the desired concentration.
After the specified period of time, mortality in % is determined. 100% means that all spider mites have been killed and 0% means that none of the spider mites have been killed.
`CCc1csc(=N[C@@H](C)c2ccc(Cl)cc2)n1CCO` [Example 2-288]: the mortality at 500 g/ha is at least 80%.

Compound `Cc1csc(=N[C@@H](C)c2ccc(Cl)cc2)n1CCO` [Example 2-287] returned a mortality at 500 g/ha of at least 80%.

For the next data set, the system named is Phaedon cochleariae. Description: Phaedon cochleariae - test (PHAECO spray application). Format: in vivo. The note with it: application rate of 500g/ha, sprayed Chinese cabbage leaf-disks infested with mustard beetle larvae, 100 % = all beetle larvae killed. As for the experimental part: Phaedon cochleariae - test; (PHAECO spray application)
as §1
Chinese cabbage (Brassica pekinesis) leaf-disks are sprayed with a preparation of the active ingredient of the desired concentration. Once dry, the leaf disks are infested with mustard beetle larvae (Phaedon cochleariae).
After the specified period of time, mortality in % is determined. 100 % means that all beetle larvae have been killed and 0 % means that none of the beetle larvae have been killed.
Regarding `CCc1csc(=N[C@@H](C)c2ccc(F)cc2)n1CCO` [Example 2-153], the mortality at 500 g/ha is at least 80%.

Test system in another data set: not listed separately
Description: LogP via HPLC according to EEC directive 79/831 Annex V.A8 (gradient method, acetonitrile / 0,1 % aqueous formic acid). Format: physicochemical. Conditions: read-out: lgP (HCOOH). As for the experimental part: Step 2: A stirred mixture of 58 mg (0,24 mmol) of 1-[(1S)-1-(4-fluorophenyl)ethyl]-3-(2-hydroxyethyl)thiourea (preparation step 1) and 27 mg (0,29 mmol) of 1-chloro-propan-2-one in ethanol was refluxed for 18 hours. The solvent was evaporated under reduced pressure and the residue was heated to 70 °C with 25 % aqueous NH4OH solution. This aqueous solution was cooled to ambient temperature and extracted twice with dichloromethane. The organic layer was separated, dried with sodium sulfate and filtered off. The solvent was evaporated under reduced pressure. The residue was purified by chromatography (silica gel; cyclohexane/ethyl acetate = vol. 2:1) to afford 42 mg of 2-[(2E)-2-{[(1S)-1-(4-fluorophenyl)ethyl]imino}-4-methyl-1,3-thiazol-3(2H)-yl]ethanol. Yield: 42 mg (62,3 % of theory). logP (HCOOH) = 0,89 LogP values according EEC directive 79/831 Annex V.A8 via HPLC (gradient method, acetonitrile / 0,1 % aqueous formic acid).
For the compound `CC[C@H](N=c1scc(-c2ccccc2)n1CCO)c1ccccc1` [Example 2-370], the chromatographic logP is 1.33.

As to `C[C@H](N=c1scc(-c2cccnc2)n1CCO)c1ccccc1` [Example 2-27], the chromatographic logP was 0.85.

With `CC[C@H](N=c1scc(C(C)C)n1CCO)c1ccccc1` [Example 2-364], the chromatographic logP stood at 1.19.

On to `C[C@H](N=c1scc(-c2ccccc2)n1CCO)c1ccc(F)cc1` [Example 2-160], for which the chromatographic logP stood at 1.26.

Take `CCc1csc(=N[C@@H](C)c2ccc(Cl)cc2)n1CCO` [Example 2-288]: the chromatographic logP was 1.14.

Take `CC[C@H](N=c1scc(C2CC2)n1CCO)c1ccccc1` [Example 2-367]: the chromatographic logP worked out at 1.14.

For the compound `COc1ccc([C@H](C)N=c2scc(C3CCCC3)n2CCO)cc1` [Example 2-278], the chromatographic logP was 1.33.

Take `C[C@H](N=c1scc(C2CC2)n1CCO)c1ccc(F)cc1` [Example 2-157]: the chromatographic logP turned out to be 1.03.

For `Cc1csc(=N[C@@H](C)c2ccccc2)n1CCO` [Example 2-17], the chromatographic logP turned out to be 0.85.

Consider `COc1ccc([C@H](C)N=c2scc(C)n2CCO)cc1` [Example 2-272], for which the chromatographic logP is 0.89.

As for `Cc1csc(=N[C@@H](C)c2ccc(Cl)cc2)n1CCO` [Example 2-287], the chromatographic logP turned out to be 1.03.

Turning to `C[C@H](N=c1scc(C2CC2)n1CCO)c1ccccc1` [Example 2-22], the chromatographic logP stood at 1.01.

In the case of `CCc1csc(=N[C@@H](C)c2ccc(F)cc2)n1CCO` [Example 2-153], the chromatographic logP was 1.

As to `C[C@H](N=c1scc(-c2cccnc2)n1CCO)c1ccc(Cl)cc1` [Example 2-297], the chromatographic logP turned out to be 1.03.

In the case of `COc1ccc([C@H](C)N=c2scc(-c3cccnc3)n2CCO)cc1` [Example 2-282], the chromatographic logP amounted to 0.9.

For `C[C@H](N=c1scc(-c2ccccc2)n1CCO)c1ccccc1` [Example 2-25], the chromatographic logP was found to be 1.19.

With `CC(C)c1csc(=N[C@@H](C)c2ccc(Cl)cc2)n1CCO` [Example 2-289], the chromatographic logP came to 1.28.

As for `Cc1cs/c(=N/[C@@H](C)c2ccc(F)cc2)n1CCO` [Example 2-152, 2-[(2E)-2-{[(1S)-1-(4-fluorophenyl)ethyl]imino}-4-methyl-1,3-thiazol-3(2H)-yl]ethanol], the chromatographic logP is 0.89.

Consider `CC(C)c1csc(=N[C@@H](C)c2ccccc2)n1CCO` [Example 2-19], for which the chromatographic logP stood at 1.07.

On to `CC[C@H](N=c1scc(C2CCCC2)n1CCO)c1ccccc1` [Example 2-368], for which the chromatographic logP stood at 1.4.

`COc1ccc([C@H](C)N=c2scc(C3(Cl)CC3)n2CCO)cc1` [Example 2-284]: the chromatographic logP was 1.14.

Regarding `CC[C@H](N=c1scc(C)n1CCO)c1ccccc1` [Example 2-362], the chromatographic logP was 0.98.

Turning to `CC(C)c1csc(=N[C@@H](C)c2ccc(F)cc2)n1CCO` [Example 2-154], the chromatographic logP came out at 1.12.

For the compound `COc1ccc([C@H](C)N=c2scc(-c3ccccc3)n2CCO)cc1` [Example 2-280], the chromatographic logP amounted to 1.26.

Turning to `C[C@H](N=c1scc(C2(Cl)CC2)n1CCO)c1ccc(F)cc1` [Example 2-164], the chromatographic logP amounted to 1.14.

Regarding `C[C@H](N=c1scc(C2CCCC2)n1CCO)c1ccc(F)cc1` [Example 2-158], the chromatographic logP is 1.31.

Take `CCc1csc(=N[C@@H](CC)c2ccccc2)n1CCO` [Example 2-363]: the chromatographic logP was found to be 1.09.

Consider `C[C@H](N=c1scc(C2CCCC2)n1CCO)c1ccc(Cl)cc1` [Example 2-293], for which the chromatographic logP turned out to be 1.42.

Regarding `COc1ccc([C@H](C)N=c2scc(C(C)C)n2CCO)cc1` [Example 2-274], the chromatographic logP amounted to 1.09.

For `CCc1csc(=N[C@@H](C)c2ccc(OC)cc2)n1CCO` [Example 2-273], the chromatographic logP worked out at 1.

For `COc1ccc([C@H](C)N=c2scc(C3CC3)n2CCO)cc1` [Example 2-277], the chromatographic logP was found to be 1.05.

Turning to `CC[C@H](N=c1scc(-c2cccnc2)n1CCO)c1ccccc1` [Example 2-372], the chromatographic logP turned out to be 1.

Consider `CC[C@H](N=c1scc(C2(Cl)CC2)n1CCO)c1ccccc1` [Example 2-374], for which the chromatographic logP turned out to be 1.19.

With `C[C@H](N=c1scc(-c2cccnc2)n1CCO)c1ccc(F)cc1` [Example 2-162], the chromatographic logP came to 0.9.

Turning to `C[C@H](N=c1scc(C2CCCC2)n1CCO)c1ccccc1` [Example 2-23], the chromatographic logP was 1.26.

Turning to `Cc1sc(=N[C@@H](C)c2ccccc2)n(CCO)c1C` [Example 2-21], the chromatographic logP amounted to 1.13.

Consider `C[C@H](N=c1scc(C2(Cl)CC2)n1CCO)c1ccc(Cl)cc1` [Example 2-299], for which the chromatographic logP was found to be 1.33.

As for `CCc1csc(=N[C@@H](C)c2ccccc2)n1CCO` [Example 2-18], the chromatographic logP was determined as 0.96.

Turning to `C[C@H](N=c1scc(C2(Cl)CC2)n1CCO)c1ccccc1` [Example 2-29], the chromatographic logP worked out at 1.12.

With `C[C@H](N=c1scc(-c2ccccc2)n1CCO)c1ccc(Cl)cc1` [Example 2-295], the chromatographic logP was 1.38.
